In article PMC6479731 (ACS Synthetic Biology, 2019):

Test system: Cn Mdh2 CT4–1
Conditions: read-out: Km,MeOH; 1 mM NAD+, 100 mM glycine-NaOH pH 9.5, 50 mM MgSO4, 37 °C, no activator protein

Km: 88.8 ± 7.8 mM
Compound: CO [methanol]
